Values of other authors in Sander's compilation of Henry's law constants (doi:10.1002/cite.330370802).

Assay: Henry solubility constant Hcp at 303 K (mol/(m3 Pa))
Conditions: reference: Irmann (1965); cited value

| SMILES | Henry solubility constant Hcp at 303 K |
| --- | --- |
| FC(F)=C(F)F [tetrafluoroethene] | 9.8e-06 |

Assay: Henry solubility constant Hcp at 298.15 K (mol/(m3 Pa))
Conditions: reference: Irmann (1965); cited value

| SMILES | Henry solubility constant Hcp |
| --- | --- |
| CCCl [chloroethane] | 0.00063 |
| FC(F)F [trifluoromethane] | 0.0001 |
| FC(F)(F)CCl [2-chloro-1,1,1-trifluoroethane] | 0.00037 |
| FC(F)(F)Cl [chlorotrifluoromethane] | 5.7e-06 |
| FC(F)(F)Br [bromotrifluoromethane] | 2e-05 |
| FC(F)(F)F [tetrafluoromethane] | 1.9e-06 |
| C=CC=C [1,3-butadiene] | 0.00015 |
| FC(F)(F)C(F)(F)Cl [chloropentafluoroethane] | 3.2e-06 |
| FC(F)(Cl)Cl [dichlorodifluoromethane] | 2.3e-05 |

Assay: Henry solubility constant Hcp at 294 K (mol/(m3 Pa))
Conditions: reference: Irmann (1965); cited value

| SMILES | Henry solubility constant Hcp at 294 K |
| --- | --- |
| CC(F)F [1,1-difluoroethane] | 0.00048 |
| CC(F)(F)Cl [1-chloro-1,1-difluoroethane] | 0.00019 |
| FC(F)(F)C(F)(Cl)Cl [1,1-dichlorotetrafluoroethane] | 5.8e-06 |

Assay: Henry solubility constant Hcp at 293 K (mol/(m3 Pa))
Conditions: reference: Irmann (1965); cited value

| SMILES | Henry solubility constant Hcp at 293 K |
| --- | --- |
| FC(F)(Cl)C(F)(F)Cl [1,2-dichlorotetrafluoroethane] | 8.1e-06 |
